Consider nine compounds from patent US20240376097A1, “BCL-2 Inhibitor” (BeiGene Ltd., priority 2020, published 2024).

The target in experiment [1] is Recombinant human Bcl-2 protein (Homo sapiens (Human), UniProt P10415). The experiment in a line: Bcl-2 TR-FRET Assay. The experiment is classed as binding. The essentials: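 0.05 nM recombinant Bcl-2 preincubated 0.5 h at room temperature with 10-point compound dilutions (top final 1, 0.1, 0.02 or 0.01 uM) in pH 7.5 phosphate buffer. FITC-Bak peptide (0.5 nM) and anti-6His Tb cryptate then added for 1 h. TR-FRET read; IC50 from four-parameter logistic fit.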
(TR-FRET usually uses a lanthanide donor and a delayed reading to cut background.)

Experiment [2] deals with recombinant human Bcl-2-G101V protein (Homo sapiens (Human), UniProt P10415, G101V). In words: Bcl-2-G101V TR-FRET Assay. It counts as binding. The settings on record: Bcl-2 G101V mutant, TR-FRET; read-out: Biochemical assay (IC50, nM) Bcl-2 G101V. The essentials: (§1)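 Measures how compounds block Bcl-2-G101V engaging its ligand, by TR-FRET with 337 nm excitation and a 490/520 nm emission ratio; dose-response data give IC50 via a four-parameter logistic model.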

Experiment [3] deals with recombinant human Bcl-2-G101V protein. In words: Bcl-2-G101V TR-FRET Assay. It counts as binding. The settings on record: ratio of biochemical IC50 Bcl-2 G101V / Bcl-2 WT. Put shortly: as §1
The test system of experiment [4] is RS4;11 (BCL-2 dependent acute lymphoblastic leukemia cell line). The experiment in a line: RS4;11 Cell Proliferation Assay. It counts as cell-based. The settings on record: Homo sapiens, RS4-11, RS4;11 cells, read-out: Cellular proliferation assay (IC50, nM) RS4. The essentials:
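RS4;11 cells, 50,000 per well in RPMI-1640 with 10% FBS, treated 48 h at 37 °C with a 10-point dilution series topping at 1 μM. Viability read by CellTiter-Glo ATP luminescence; mean IC50 reported.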

Experiment [5] concerns BCL-2 G101V knock-in cell line H96 (derive from RS4;11). In words: Bcl 2-G101V Knock-In RS4;11 Cell Proliferation Assay. The experiment is classed as cell-based. The settings on record: Homo sapiens, RS4;11 Bcl-2 G101V knock-in clone H96, 48 hrs, CellTiter-GLO, read-out: Cellular proliferation assay (IC50, nM) RS4. The essentials:
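H96, a CRISPR-generated RS4;11 clone carrying BCL2-G101V knock-in (WES/RNA-seq validated), seeded 50,000 per well and exposed 48 h at 37 °C to 10-point dilutions topping at 1 or 10 μM. Viability by CellTiter-Glo luminescence; mean IC50.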

Experiment [6] addresses recombinant human Bcl-2 D103Y protein (Homo sapiens (Human), UniProt P10415, D103Y). In words: Bcl-2-D103Y Biochemical Assay (TR-FRET). The settings on record: for IC50: TR-FRET, FITC labeled Bak peptide; for Ratio of Bcl-2 D103Y/Bcl-2 WT: ratio of IC50. The experiment is classed as binding. Put shortly: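 Recombinant human Bcl-2 D103Y binding to its ligand measured by TR-FRET (ex 337 nm, em 490/520 nm) with increasing compound concentrations. Percent inhibition from the 490/520 nm ratio; IC50 from four-parameter logistic fit.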

Setting [7] is: Bcl-2 wild type, TR-FRET, read-out: Biochemical assay (IC50, nM) Bcl-2 WT.
Setting [8] is: wild type Bcl-2, unit inferred, read-out: Bcl-2 WT.

Like-named read-outs stand apart in the source and are kept apart here.

In the case of `COc1cc(CN2CCN(C3CC4(C3)CN(c3ccc(C(=O)NS(=O)(=O)c5ccc(NC[C@H]6CC[C@](C)(O)CC6)c([N+](=O)[O-])c5)c(Oc5cnc6[nH]ccc6c5)c3)C4)[C@H](c3ccccc3C(C)C)C2)cc2c1OCC2(C)C` [Example 296, 2-((1H-pyrrolo[2,3-b]pyridin-5-yl)oxy)-N-((4-((((1r,4r)-4-hydroxy-4-methylcyclohexyl)methyl)amino)-3-nitrophenyl)sulfonyl)-4-(6-((R)-2-(2-isopropylphenyl)-4-((7-methoxy-3,3-dimethyl-2,3-dihydrobenzofuran-5-yl)methyl)piperazin-1-yl)-2-azaspiro[3.3]heptan-2-yl)benzamide], the IC50 in experiment [1] (setting [7]) was 0.13 nM; in experiment [1] (setting [8]) it was 0.13 nM; in experiment [2] it was 0.28 nM; in experiment [4], 0.24 nM; in experiment [5], 0.55 nM; in experiment [6], 140 pM. For the same compound, the “Ratio of Bcl-2 G101V/WT” value in experiment [3] worked out at 2.1. Moreover, the “Ratio of Bcl-2 D103Y/Bcl-2 WT” value in experiment [6] is on record as 1.1.
For the compound `COc1cc(CN2CCN(C3CC4(CCN(c5ccc(C(=O)NS(=O)(=O)c6ccc(NC[C@H]7CC[C@](C)(O)CC7)c([N+](=O)[O-])c6)c(Oc6cnc7[nH]cc(F)c7c6)c5)CC4)C3)[C@H](c3ccccc3C(C)C)C2)cc2c1OCCC2` [Example 299, 2-((3-fluoro-1H-pyrrolo[2,3-b]pyridin-5-yl)oxy)-N-((4-((((1r,4r)-4-hydroxy-4-methylcyclohexyl)methyl)amino)-3-nitrophenyl)sulfonyl)-4-(2-((R)-2-(2-isopropylphenyl)-4-((8-methoxychroman-6-yl)methyl)piperazin-1-yl)-7-azaspiro[3.5]nonan-7-yl)benzamide], the IC50 was determined as 0.13 nM in experiment [1] (setting [7]); 0.13 nM in experiment [1] (setting [8]); 0.25 nM in experiment [2]; 0.27 nM in experiment [4]; 0.47 nM in experiment [5]; 130 pM in experiment [6]. Also, in experiment [3], the “Ratio of Bcl-2 G101V/WT” value is 1.9. The “Ratio of Bcl-2 D103Y/Bcl-2 WT” value in experiment [6] was 1.0.
Regarding `COc1cc(CN2CCN(C3CC4(CCN(c5ccc(C(=O)NS(=O)(=O)c6ccc(NC[C@H]7CC[C@](C)(O)CC7)c([N+](=O)[O-])c6)c(Oc6cnc7[nH]ccc7c6)c5)CC4)C3)[C@H](c3ccccc3C(C)C)C2)cc2c1OCCC2` [Example 302, 2-((1H-pyrrolo[2,3-b]pyridin-5-yl)oxy)-N-((4-((((1r,4r)-4-hydroxy-4-methylcyclohexyl)methyl)amino)-3-nitrophenyl)sulfonyl)-4-(2-((R)-2-(2-isopropylphenyl)-4-((8-methoxychroman-6-yl)methyl)piperazin-1-yl)-7-azaspiro[3.5]nonan-7-yl)benzamide], the IC50 in experiment [1] (setting [7]) turned out to be 0.071 nM; in experiment [1] (setting [8]), 0.071 nM; in experiment [2], 0.2 nM; in experiment [4], 0.31 nM; in experiment [5] it was 0.79 nM; in experiment [6], 69 pM. In experiment [3], the “Ratio of Bcl-2 G101V/WT” value is listed as 2.8. In addition, the “Ratio of Bcl-2 D103Y/Bcl-2 WT” value in experiment [6] is listed as 1.0.
With `COc1cc(CN2CCN(C3CC4(CCN(c5ccc(C(=O)NS(=O)(=O)c6ccc(NC[C@H]7CC[C@](C)(O)CC7)c([N+](=O)[O-])c6)c(Oc6cnc7[nH]cc(F)c7c6)c5)CC4)C3)[C@H](c3ccccc3C(C)C)C2)cc2c1OCC2` [Example 303], the IC50 came out at 0.11 nM in experiment [1] (setting [7]); 0.11 nM in experiment [1] (setting [8]); 0.26 nM in experiment [2]; 0.3 nM in experiment [4]; 0.52 nM in experiment [5]; 160 pM in experiment [6]. Further, in experiment [3], the “Ratio of Bcl-2 G101V/WT” value was determined as 2.3. In addition, the “Ratio of Bcl-2 D103Y/Bcl-2 WT” value in experiment [6] is listed as 1.4.
On to `CC(C)c1ccccc1[C@@H]1CN(Cc2ccc3c(c2)OCC3)CCN1C1CC2(CCN(c3ccc(C(=O)NS(=O)(=O)c4ccc(NC[C@H]5CC[C@](C)(O)CC5)c([N+](=O)[O-])c4)c(Oc4cnc5[nH]ccc5c4)c3)CC2)C1` [Example 304, 2-((1H-pyrrolo[2,3-b]pyridin-5-yl)oxy)-4-(2-((R)-4-((2,3-dihydrobenzofuran-6-yl)methyl)-2-(2-isopropylphenyl)piperazin-1-yl)-7-azaspiro[3.5]nonan-7-yl)-N-((4-((((1r,4r)-4-hydroxy-4-methylcyclohexyl)methyl)amino)-3-nitrophenyl)sulfonyl)benzamide], for which the IC50 amounted to 0.13 nM in experiment [1] (setting [7]); 0.13 nM in experiment [1] (setting [8]); 0.41 nM in experiment [2]; 0.3 nM in experiment [4]; 2.3 nM in experiment [5]; 220 pM in experiment [6]. Further, in experiment [3], the “Ratio of Bcl-2 G101V/WT” value is 3.2. Besides, the “Ratio of Bcl-2 D103Y/Bcl-2 WT” value in experiment [6] came to 1.8.
Regarding `COc1cc(CN2CCN(C3CC4(C3)CN(c3ccc(C(=O)NS(=O)(=O)c5ccc(NC[C@H]6CC[C@](C)(O)CC6)c([N+](=O)[O-])c5)c(Oc5cnc6[nH]cc(F)c6c5)c3)C4)[C@H](c3ccccc3C(C)C)C2)cc2ccoc12` [Example 306, 2-((3-fluoro-1H-pyrrolo[2,3-b]pyridin-5-yl)oxy)-N-((4-((((1r,4r)-4-hydroxy-4-methylcyclohexyl)methyl)amino)-3-nitrophenyl)sulfonyl)-4-(6-((R)-2-(2-isopropylphenyl)-4-((7-methoxybenzofuran-5-yl)methyl)piperazin-1-yl)-2-azaspiro[3.3]heptan-2-yl)benzamide], the IC50 in experiment [1] (setting [7]) was 0.31 nM; in experiment [1] (setting [8]) it was 0.31 nM; in experiment [2], 0.97 nM; in experiment [4], 0.12 nM; in experiment [5], 0.15 nM; in experiment [6], 310 pM. The “Ratio of Bcl-2 G101V/WT” value in experiment [3] is listed as 3.1. The “Ratio of Bcl-2 D103Y/Bcl-2 WT” value in experiment [6] amounted to 1.0.
As for `COc1cc(CN2CCN(C3CC4(C3)CN(c3ccc(C(=O)NS(=O)(=O)c5ccc(NC[C@H]6CC[C@](C)(O)CC6)c([N+](=O)[O-])c5)c(Oc5cnc6[nH]ccc6c5)c3)C4)[C@H](c3ccccc3C(C)C)C2)cc2ccoc12` [Example 307, 2-((1H-pyrrolo[2,3-b]pyridin-5-yl)oxy)-N-((4-((((1r,4r)-4-hydroxy-4-methylcyclohexyl)methyl)amino)-3-nitrophenyl)sulfonyl)-4-(6-((R)-2-(2-isopropylphenyl)-4-((7-methoxybenzofuran-5-yl)methyl)piperazin-1-yl)-2-azaspiro[3.3]heptan-2-yl)benzamide], the IC50 in experiment [1] (setting [7]) came out at 0.17 nM; in experiment [1] (setting [8]) it was 0.17 nM; in experiment [2] it was 0.43 nM; in experiment [4] it was 0.11 nM; in experiment [5] it was 0.17 nM; in experiment [6], 180 pM. Also, the “Ratio of Bcl-2 G101V/WT” value in experiment [3] was 2.5. Besides, the “Ratio of Bcl-2 D103Y/Bcl-2 WT” value in experiment [6] is given as 1.1.
For the compound `CC(C)c1ccccc1[C@@H]1CN(Cc2ccnc3c2OCC(C)(C)O3)CCN1C1CC2(C1)CN(c1ccc(C(=O)NS(=O)(=O)c3ccc(NC[C@H]4CC[C@](C)(O)CC4)c([N+](=O)[O-])c3)c(Oc3cnc4[nH]cc(F)c4c3)c1)C2` [Example 317], the IC50 amounted to 0.033 nM in experiment [1] (setting [7]); 0.033 nM in experiment [1] (setting [8]); 0.12 nM in experiment [2]; 0.19 nM in experiment [4]; 0.43 nM in experiment [5]; 57 pM in experiment [6]. The “Ratio of Bcl-2 G101V/WT” value in experiment [3] amounted to 3.6. Also, in experiment [6], the “Ratio of Bcl-2 D103Y/Bcl-2 WT” value was determined as 1.7.
As to `COc1cc(CN2CCN(C3CC4(C3)CN(c3ccc(C(=O)NS(=O)(=O)c5ccc(NC[C@H]6CC[C@](C)(O)CC6)c([N+](=O)[O-])c5)c(Oc5cnc6[nH]ccc6c5)c3)C4)[C@H](c3ccccc3C(C)C)C2)cc2c1OCCC2` [Example 318, 2-((1H-pyrrolo[2,3-b]pyridin-5-yl)oxy)-N-((4-((((1r,4r)-4-hydroxy-4-methylcyclohexyl)methyl)amino)-3-nitrophenyl)sulfonyl)-4-(6-((R)-2-(2-isopropylphenyl)-4-((8-methoxychroman-6-yl)methyl)piperazin-1-yl)-2-azaspiro[3.3]heptan-2-yl)benzamide], the IC50 amounted to 0.056 nM in experiment [1] (setting [7]); 0.056 nM in experiment [1] (setting [8]); 0.16 nM in experiment [2]; 0.2 nM in experiment [4]; 0.31 nM in experiment [5]; 52 pM in experiment [6]. Also, the “Ratio of Bcl-2 G101V/WT” value in experiment [3] came out at 2.9. Also, the “Ratio of Bcl-2 D103Y/Bcl-2 WT” value in experiment [6] is listed as 0.9.
